Experimental data published in patent US8586752B1, “Crystalline S-omeprazole strontium hydrate, method for preparing same, and pharmaceutical composition containing same” (Hanmi Science Co., Ltd, priority 2005, dated 2013).
Where two headings read alike, the source gives them in different places.

Key:
Water-solubility test = type: physicochemical; settings: for Solubility: deionized water to saturation, 25° C., HPLC condition A; for Saturation pH: saturated solution in deionized water
Protocol: The S-omeprazole strontium tetrahydrate of the present invention and the S-omeprazole magnesium trihydrate were each dissolved in deionized water to saturation. The water-solubility of each of the saturated solutions was analyzed by HPLC under the previously described condition A and the amount of each salt hydrate dissolved was measured.

[1] = Heat stability test of the inventive salt; type: physicochemical; settings: for Amount of titrated S-omeprazole: sealed, 60° C. and 75% relative humidity
Protocol: The salt of Example 1 was stored in the sealed state under a stressed condition of 60° C. and 75% relative humidity, and the remaining amounts of active S-omeprazole after 7, 14, 21 and 28 days were measured by HPLC condition A. The results are shown in Table 5.

Hygroscopicity test = type: physicochemical; settings: for Moisture content: exposed
Protocol: The inventive S-omeprazole strontium was exposed in the naked state at 25 to 40° C. and 40 to 90% relative humidity for a period of over 15 days. The moisture contents of the inventive salt measured with a Karl-Fisher titrator at storage time 0, 3, 7 and 15 days are shown in Table 4.

[2] = Storage stability under long-term, accelerated aging and stressed conditions; type: physicochemical; settings: 25° C./60% RH exposed; 40° C./75% RH exposed; 60° C./75% RH closed; 2 to 4 weeks
rats = settings: dose of 633 mg/kg/day; cited from earlier work

With `COc1ccc2[n-]c([S+]([O-])Cc3ncc(C)c(OC)c3C)nc2c1.COc1ccc2[n-]c([S+]([O-])Cc3ncc(C)c(OC)c3C)nc2c1.O.O.O.[Mg+2]` (centres unmarked) [Magnesium trihydrate, S-Omeprazole Magnesium Trihydrate, reference compound] the Solubility (Water-solubility test) was 1.5 mg/mL and the “Saturation pH” value (Water-solubility test) was 9.9.
In the case of `COc1ccc2nc([S@@+]([O-])Cc3ncc(C)c(OC)c3C)[nH]c2c1` [S-omeprazole strontium tetrahydrate, S-omerprazole strontium tetrahydrate], the “Amount of titrated S-omeprazole” value ([1]; 7 days) is reported as 997 µg/mg, the “Amount of titrated S-omeprazole” value ([1]; 14 days) is reported as 998 µg/mg and the “Amount of titrated S-omeprazole” value ([1]; 21 days) is reported as 997 µg/mg. For the same compound, the “Amount of titrated S-omeprazole” value ([1]; 28 days) was 997 µg/mg, the “Amount of titrated S-omeprazole” value ([1]; Initial) was 997 µg/mg and the Heat stability ([1]; summary of Table 5 (60° C., 75% relative humidity, sealed, up to 28 days)) was “highly stable”. For the same compound, the Solubility (Water-solubility test; 25 °C, water, thermodynamic from solid, read-out: Solubility) was about 17.6 mg/mL, the Solubility (Water-solubility test) was 17.6 mg/mL and the “Saturation pH” value (Water-solubility test) was 10.2. The “Water solubility relative to S-omeprazole magnesium trihydrate” value (Water-solubility test; times higher than S-omeprazole magnesium trihydrate) was “at least 10 times”, the Moisture content (Hygroscopicity test; 40% relative humidity (25° C.), 0 day) was 9.0 wt % and the Moisture content (Hygroscopicity test; 40% relative humidity (25° C.), 3 days) was 8.9 wt %. It also gave a Moisture content (Hygroscopicity test; 40% relative humidity (25° C.), 7 days) of 8.7 wt %, a Moisture content (Hygroscopicity test; 40% relative humidity (25° C.), 15 days) of 8.8 wt % and a Moisture content (Hygroscopicity test; 60% relative humidity (25° C.), 0 day) of 9.0 wt %. It also gave a Moisture content (Hygroscopicity test; 60% relative humidity (25° C.), 3 days) of 9.0 wt %, a Moisture content (Hygroscopicity test; 60% relative humidity (25° C.), 7 days) of 9.2 wt % and a Moisture content (Hygroscopicity test; 60% relative humidity (25° C.), 15 days) of 9.1 wt %. The Moisture content (Hygroscopicity test; 75% relative humidity (40° C.), 0 day) was 9.0 wt %, the Moisture content (Hygroscopicity test; 75% relative humidity (40° C.), 3 days) was 8.9 wt % and the Moisture content (Hygroscopicity test; 75% relative humidity (40° C.), 7 days) was 9.0 wt %. The Moisture content (Hygroscopicity test; 75% relative humidity (40° C.), 15 days) was 8.9 wt %, the Moisture content (Hygroscopicity test; 90% relative humidity (35° C.), 0 day) was 9.0 wt % and the Moisture content (Hygroscopicity test; 90% relative humidity (35° C.), 3 days) was 9.2 wt %. The Moisture content (Hygroscopicity test; 90% relative humidity (35° C.), 7 days) was 9.3 wt %, the Moisture content (Hygroscopicity test; 90% relative humidity (35° C.), 15 days) was 9.2 wt % and the Hygroscopicity (Hygroscopicity test; under a highly humid condition) was “less hygroscopic”. The Initial moisture content (Hygroscopicity test; under a low humidity condition) was “maintained” and the Stability on storage [2] was “maintain the initial moisture content, purity and crystallinity”.
For `[Sr+2]` [strontium, Strontium], the Safety (rats) is listed as “no safety problems”.
